One data set deals with T1, SCD (Mus musculus, UniProt P13516).
T1 sequence (P13516 1-355): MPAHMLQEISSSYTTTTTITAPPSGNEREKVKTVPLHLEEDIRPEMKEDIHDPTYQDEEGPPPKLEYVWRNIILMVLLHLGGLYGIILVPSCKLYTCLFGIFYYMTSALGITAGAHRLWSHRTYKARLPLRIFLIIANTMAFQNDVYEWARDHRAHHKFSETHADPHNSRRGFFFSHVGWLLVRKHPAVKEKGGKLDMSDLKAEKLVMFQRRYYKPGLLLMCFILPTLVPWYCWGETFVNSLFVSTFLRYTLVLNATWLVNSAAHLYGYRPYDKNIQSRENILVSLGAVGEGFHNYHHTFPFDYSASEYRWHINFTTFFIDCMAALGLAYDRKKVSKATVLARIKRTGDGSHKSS
Description: Mouse SCD IC50 determination for compounds active in the HTS assay. The format is biochemical.

The target in data set [1] is T2, stearoyl-CoA desaturase (SCD) (Mus musculus, UniProt P13516).
T2 construct: Reactions are started by adding 2 mg of microsomal protein; from tissue; host or cells: liver microsomes of male ICR mice on a high-carbohydrate, low fat diet
T2 sequence (P13516 1-355): T1 sequence (P13516 1-355)
Description: HTS microsomal assay of stearoyl-CoA desaturase inhibition using mouse liver microsomes. The format is biochemical. The conditions noted are these: % SCD enzyme activity remaining at 10 μM test compound. The procedure:
The absence of mitochondrial contamination is enzymatically assessed.
The compounds are analyzed with an HTS microsomal assay.
A general note: Microsomes from liver hold many membrane-bound enzymes, among them those of drug oxidation.

A further data set has as its system HEPG2. Put plainly: HEPG2 IC50. The data set is classed as cell-based. To be noted: Homo sapiens.

The results in this text go back to patent US20110021530A1, “PYRIDAZINE DERIVATIVES AND THEIR USE AS THERAPEUTIC AGENTS IN THE TREATMENT OF SKIN DISORDERS” (XENON PHARMACEUTICALS INC., priority 2008, published 2011).

The term IC50 denotes the concentration needed to halve the response being measured. A lower IC50 goes with greater potency in that assay. What is called melting point is the temperature, or range, at which the solid turns liquid.

In turn, `O=C(NCCc1ccc(F)cc1F)c1ccc(N2CCN(C(=O)c3ccccc3C(F)(F)F)CC2)nn1` [6-[4-(2-TRIFLUOROMETHYLBENZOYL)PIPERAZIN-1-YL]PYRIDAZINE-3-CARBOXYLIC ACID [2-(2,4-DIFLUOROPHENYL)ETHYL]AMIDE] registered a melting point of 179 to 181 °C. The compound further gave an IC50 on SCD of 20 nM. Besides, the “Mouse microsome SCD activity % remaining @ 10 μM” value in data set [1] is 5%. The compound further displayed an IC50 with HEPG2 of 20 nM.
Compound `O=C(NCCC1CC1)c1ccc(N2CCN(Cc3ccccc3C(F)(F)F)CC2)nn1` [6-[4-(2-TRIFLUOROMETHYLBENZYL)PIPERAZIN-1-YL]PYRIDAZINE-3-CARBOXYLIC ACID (2-CYCLOPROPYLETHYL)AMIDE] yielded a melting point of 106 to 108 °C. The same compound registered an IC50 on SCD of 90 nM. Also, in data set [1], the “Mouse microsome SCD activity % remaining @ 10 μM” value worked out at 12%. Moreover, it took 40 nM to reach half-maximal inhibition in the data set on HEPG2 (IC50).
`O=C(NCc1ccccn1)c1ccc(N2CCN(C(=O)c3ccccc3C(F)(F)F)CC2)nn1` [Example 30, 6-[4-(2-TRIFLUOROMETHYLBENZOYL)PIPERAZIN-1-YL]PYRIDAZINE-3-CARBOXYLIC ACID (PYRIDIN-2-YL-METHYL)AMIDE] had a melting point of 179 to 181 °C.
`O=C(NCCc1ccc2c(c1)OCO2)c1ccc(N2CCN(C(=O)c3ccccc3C(F)(F)F)CC2)nn1` [Example 30.1, 6-[4-(2-TRIFLUOROMETHYLBENZOYL)PIPERAZIN-1-YL]PYRIDAZINE-3-CARBOXYLIC ACID (2-BENZO[1,3]DIOXOL-5-YL-ETHYL)AMIDE] registered a melting point of 162 to 164 °C.
Same read-out and setting: as for `O=C(NCCC1CC1)c1ccc(N2CCN(C(=S)c3ccccc3C(F)(F)F)CC2)nn1` [Example 31, 6-[4-(2-TRIFLUOROMETHYLTHIOBENZOYL)PIPERAZIN-1-YL]-PYRIDAZINE-3-CARBOXYLIC ACID (2-CYCLOPROPYLETHYL)AMIDE], the figure is 117 to 120 °C.
